From patent US20210368825A1, “FEED ADDITIVE FOR DAIRY CATTLE COMPRISING N-ACETYL-L-TRYPTOPHAN AS ACTIVE INGREDIENT” (CJ CHEILJEDANG CORPORATION, priority 2018, published 2021)

What was measured:
[1] = test system: milking cows after calving; experiment: Analysis of milk quality of dairy cattle after calving according to NALT feeding (milk scanner FT1); assay type: in vivo, Holstein Friesian cows; set-up: Aceton / Aceton, total AVG / BHB / BHB, total AVG / Cas.B / Cas.B, total AVG / Mono FA / Mono FA, total AVG / Saturated FA / Saturated FA, total AVG / Total FA / Total FA, total AVG: unit not given here
Description: (§1) From among Holstein Friesian cows in the late stage of gestation corresponding to 60 days before calving, 8 cows were selected in consideration of calving time (expected calving date±15 days), the number of calving (calving number), and the like, and 4 cows were assigned to each of a control (untreated) and a treated group.
(§2) In the present disclosure, as a basal diet fed during a dry period and a milking period, total mixed ration (TMR), roughage, and concentrates were provided in accordance with NRC (2001) nutrition requirements for dry cows. In the case of the treated group, evaluation was performed by supplementing N-acetyl-L-tryptophan (NALT) to the basal diet. Newborn calves were fed with colostrum for 3 days and then fed with milk obtained during a milking process for 8 weeks.
(§3) Evaluation of feed feeding before calving by feeding N-acetyl-L-tryptophan was performed for 60±8 days (error caused by difference in expected calving dates). The control was fed with the basal diet, and the treated group was fed with the basal diet supplemented with 15 g of NALT.
Raw milk was pooled at 3 a.m. and 3 p.m. every 14 days after calving when lactation was initiated, and chemical compositions contained in milk, i.e., milk fat, milk protein, lactose, solid-not-fat (SNF), somatic cells, milk urea nitrogen (MUN), acetone, beta-hydroxybutyrate (BHB), casein-beta, mono- and poly-unsaturated fatty acids, saturated fatty acids, and total fatty acid, were analyzed using a milk scanner FT1 (Foss Alle 1 DK-3400 Hilleroed, Denmark).
In addition, in order to identify changes in milk protein yield and milk fat yield, changes were identified on a weekly basis.

[2] = test system: dairy cattle after calving; set-up: species or system Holstein Friesian cows; settings: in vivo
Description: as §1, §2, §3
(§4) Blood was collected from dairy cattle and calves during 6 weeks of the dry period and immediately after calving via the jugular vein before feeding a morning feed every 2 weeks for 8 weeks. The collected blood was aliquoted into a serum tube (BD Vacutainer, Plymouth, UK) and a heparin tube (Becton-Dickinson, Belliver Industrial Estate, Plymouth, PL6 7BP, UK) and centrifuged (3,500 rpm, 15 min, 20° C.) to separate plasma.
(§5) Samples for analysis of metabolic changes such as albumin, glutamic-oxalacetic transaminase (GOT), blood urea nitrogen (BUN), triglycerides (TG), cholesterol (CHO), glucose (GLU), and non-esterified fatty acid (NEFA) were aliquoted into a 1.5 mL tube (Eppendorf AG, Hamburg, Germany) in an amount of 500 μL each and stored in a deep freezer at −80° C.

[3] = test system: dairy cattle in dry period; set-up: species or system Holstein Friesian cows; settings: in vivo
Description: as §1, §2, §3, §4, §5

[4] = average over 8 weeks after calving
[5] = milk, average over 8 weeks after calving

Question: For CC(=O)N[C@@H](Cc1c[nH]c2ccccc12)C(=O)O [NALT, N-acetyl-L-tryptophan], which Lactose ([1]; 0 wk) is on record?
Answer: 3.48%

Question: And the Milk fat ([1]; 0 wk)?
Answer: 6.25%

Question: And the Milk protein ([1]; 0 wk)?
Answer: 12.81%

Question: And the Milk urea nitrogen ([1]; 0 wk)?
Answer: 24.43 mg/dL

Question: And the “Solid-not Fat” value ([1]; 0 wk)?
Answer: 17.17%

Question: What about the Somatic cells ([1]; 0 wk) of the same compound?
Answer: 4867.95 ×10^3

Question: What about the “Lactose, total AVG” value [1, 4] of the same compound?
Answer: 4.38%

Question: What about the “Milk fat, total AVG” value [1, 4] of the same compound?
Answer: 6.31%

Question: What about the “Milk protein, total AVG” value [1, 4] of the same compound?
Answer: 4.88%

Question: And the “Milk urea nitrogen, total AVG” value [1, 4]?
Answer: 16.49 mg/dL

Question: What about the “Solid-not Fat, total AVG” value [1, 4] of the same compound?
Answer: 9.95%

Question: What about the “Somatic cells, total AVG” value [1, 4] of the same compound?
Answer: 1086.15 ×10^3

Question: What about the “milk fat yield of colostrum compared with control” value ([1]; immediately after calving) of the same compound?
Answer: lower

Question: What about the “milk protein yield of colostrum compared with control” value ([1]; immediately after calving) of the same compound?
Answer: higher

Question: And the BHB ([1]; milk beta-hydroxybutyrate, 0 wk)?
Answer: 0.00

Question: And the “BHB, total AVG” value ([1]; milk beta-hydroxybutyrate, average over 8 weeks after calving)?
Answer: 0.04

Question: And the Cas.B ([1]; milk casein-beta, 0 wk)?
Answer: 9.76

Question: And the “Cas.B, total AVG” value ([1]; milk casein-beta, average over 8 weeks after calving)?
Answer: 3.71

Question: What about the “Mono FA” value ([1]; milk mono-unsaturated fatty acids, 0 wk) of the same compound?
Answer: 1.35

Question: What about the “Mono FA, total AVG” value ([1]; milk mono-unsaturated fatty acids, average over 8 weeks after calving) of the same compound?
Answer: 1.70

Question: What about the “Poly FA” value ([1]; milk poly-unsaturated fatty acids, 0 wk) of the same compound?
Answer: 0.34

Question: What about the “Poly FA, total AVG” value ([1]; milk poly-unsaturated fatty acids, average over 8 weeks after calving) of the same compound?
Answer: 0.36

Question: And the Aceton ([1]; milk, 0 wk)?
Answer: 0.00

Question: What about the “Saturated FA” value ([1]; milk, 0 wk) of the same compound?
Answer: 4.95

Question: What about the “Total FA” value ([1]; milk, 0 wk) of the same compound?
Answer: 1.38

Question: And the “Aceton, total AVG” value [1, 5]?
Answer: 0.07

Question: And the “Saturated FA, total AVG” value [1, 5]?
Answer: 4.20

Question: And the “Total FA, total AVG” value [1, 5]?
Answer: 2.16

Question: What about the “milk fat yield as the experiment progressed” value ([1]; weekly basis after calving, control showed a tendency to decrease) of the same compound?
Answer: tendency to be maintained constantly

Question: What about the Albumin [2] of the same compound?
Answer: 3.73 g/dL

Question: What about the “Albumin, total AVG” value [2] of the same compound?
Answer: 4.01 g/dL

Question: And the BUN [2]?
Answer: 10.75 mg/dL

Question: And the “BUN, total AVG” value [2]?
Answer: 16.75 mg/dL

Question: What about the CHO [2] of the same compound?
Answer: 101.25 mg/dL

Question: What about the “CHO, total AVG” value [2] of the same compound?
Answer: 188.45 mg/dL

Question: And the GLU [2]?
Answer: 83.75 mg/dL

Question: And the “GLU, total AVG” value [2]?
Answer: 68.35 mg/dL

Question: What about the GOT [2] of the same compound?
Answer: 87.00 U/L

Question: What about the “GOT, total AVG” value [2] of the same compound?
Answer: 89.65 U/L

Question: What about the TG [2] of the same compound?
Answer: 8.00 mg/dL

Question: What about the “TG, total AVG” value [2] of the same compound?
Answer: 9.45 mg/dL

Question: What about the “effect on metabolic changes of dairy cattle compared with control” value [2] of the same compound?
Answer: did not significantly affect

Question: And the Albumin [3]?
Answer: 3.93 g/dL

Question: What about the “Albumin, total AVG” value [3] of the same compound?
Answer: 3.74 g/dL

Question: What about the BUN [3] of the same compound?
Answer: 12.25 mg/dL

Question: And the “BUN, total AVG” value [3]?
Answer: 9.88 mg/dL

Question: What about the CHO [3] of the same compound?
Answer: 194.00 mg/dL

Question: What about the “CHO, total AVG” value [3] of the same compound?
Answer: 143.08 mg/dL

Question: What about the GLU [3] of the same compound?
Answer: 50.00 mg/dL

Question: What about the “GLU, total AVG” value [3] of the same compound?
Answer: 50.52 mg/dL

Question: And the GOT [3]?
Answer: 82.50 U/L

Question: What about the “GOT, total AVG” value [3] of the same compound?
Answer: 80.92 U/L

Question: What about the TG [3] of the same compound?
Answer: 16.25 mg/dL

Question: What about the “TG, total AVG” value [3] of the same compound?
Answer: 19.88 mg/dL

Question: And the “effect on metabolic changes of dairy cattle compared with control” value [3]?
Answer: did not significantly affect
